Where two headings read alike, the source gives them in different places.
Key:
MAPKAPK2 (MK-2) = MAPKAPK2 (MK-2) (Homo sapiens, UniProt P49137); assay: Determination of MK-2 IC50 (HSP-peptide phosphorylation, anion exchange resin capture assay); assay type: biochemical
How it was run: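 Radiometric peptide assay: 15 nM p38α-activated MK-2, HSP-peptide, 0.03 mM ATP with [γ33P]ATP, 2% DMSO, pH 7.5, 30° C for 30 min; unreacted ATP removed on AG 1×8 resin before counting. Six concentrations in ten-fold steps, each in triplicate, gave IC50 in μM.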

MK-3 = MK-3 (Homo sapiens, UniProt Q16644); assay: MK-3 inhibition IC50 (similar method to MK-2, with appropriate modifications); assay type: biochemical
MK-3, sequence (Q16644 whole entry, species assumed): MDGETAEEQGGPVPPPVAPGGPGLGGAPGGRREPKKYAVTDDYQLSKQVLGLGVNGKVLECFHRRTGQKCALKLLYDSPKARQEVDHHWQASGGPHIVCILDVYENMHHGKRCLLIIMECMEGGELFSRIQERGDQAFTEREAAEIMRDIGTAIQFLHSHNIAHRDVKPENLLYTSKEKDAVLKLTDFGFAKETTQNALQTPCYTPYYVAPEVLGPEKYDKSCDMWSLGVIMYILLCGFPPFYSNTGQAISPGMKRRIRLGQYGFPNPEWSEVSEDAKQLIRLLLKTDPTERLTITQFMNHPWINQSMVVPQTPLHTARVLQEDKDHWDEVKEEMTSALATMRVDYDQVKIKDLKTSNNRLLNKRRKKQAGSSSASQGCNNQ

[1] = Table 1, phenoxypyrazole MK-2 inhibitors, read-out: MK-2 Avg, IC50
[2] = Table 1, phenoxypyrazole MK-2 inhibitors, read-out: MK-3 Avg. IC50
[3] = Table 2, pyrazolylpyrazole MK-2 inhibitors, read-out: MK-2 Avg. IC50
[4] = Table 2, pyrazolylpyrazole MK-2 inhibitors, read-out: MK-3 Avg. IC50
[5] = Table 4, pyrimidylpyrazole MK-2 inhibitors, read-out: MK-2 Avg. IC50
[6] = Table 4, pyrimidylpyrazole MK-2 inhibitors, read-out: NK-3 Avg. IC50

MAPKAPK2 (MK-2), sequence (P49137 whole entry, species assumed): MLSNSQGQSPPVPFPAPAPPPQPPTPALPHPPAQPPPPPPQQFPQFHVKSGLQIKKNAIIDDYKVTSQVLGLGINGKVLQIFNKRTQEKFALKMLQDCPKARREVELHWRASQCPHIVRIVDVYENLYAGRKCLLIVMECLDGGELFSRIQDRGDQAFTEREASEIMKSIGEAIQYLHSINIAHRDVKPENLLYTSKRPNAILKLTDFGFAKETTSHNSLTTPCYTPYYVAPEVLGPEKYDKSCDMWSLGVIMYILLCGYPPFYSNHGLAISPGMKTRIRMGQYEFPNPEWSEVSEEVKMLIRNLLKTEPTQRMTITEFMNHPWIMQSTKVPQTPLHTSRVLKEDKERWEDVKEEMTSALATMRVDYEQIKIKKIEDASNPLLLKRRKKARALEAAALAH

IC50 (MAPKAPK2 (MK-2); [1]) [µM] | IC50 (MK-3; [2]) [µM] | IC50 (MAPKAPK2 (MK-2); read-out: MK-2 Avg. IC50) [µM] | IC50 (MK-3; read-out: MK-3 Avg. IC50) [µM] | Structure (SMILES) | other results
> 200 | > 200 |  |  | COc1ccc(-n2nc(C(N)=O)c3c2-c2ccc(O)cc2CC3)cc1 [Example 158] | 
> 200 | > 200 |  |  | COc1ccc2c(c1)CCc1c(C(=O)O)nn(-c3ccc(S(C)(=O)=O)cc3)c1-2 [Example 165] | 
 |  | 1.18 | 30.3 | O=C(O)c1c2c(nn1CCCNCCC(c1ccccc1)c1ccccc1)-c1ccncc1CC2 [Example 80] | 
> 200 | > 200 |  |  | COc1ccc2c(c1)CCc1c(C(N)=O)nn(-c3ccc(S(N)(=O)=O)cc3)c1-2 [Example 179] | 
150 | > 200 |  |  | COCCOCOc1ccc2c(c1)CCc1c-2n[nH]c1C(=O)O [Example 61] | 
> 200 | > 200 |  |  | CCN(CC)CCNC(=O)c1nn(-c2ccc(Cl)cc2)c2c1CCc1cc(OC)ccc1-2 [Example 171] | 
 |  | 0.706 | 43.1 | NCCn1nc2c(c1C(=O)O)CCc1cnccc1-2 [Example 68] | 
139 | > 200 |  |  | C=CCC1Cc2c(C(N)=O)n[nH]c2-c2ccc(O)cc21 (centres unmarked) [Example 56] | 
 |  | 0.603 | 12.6 | CC(=O)c1ccc(CCCNCCCn2nc3c(c2C(=O)O)CCc2cnccc2-3)cc1 [Example 63] | 
 |  | 0.62 | 22.8 | NCCCn1nc2c(c1C(=O)O)CCc1cnccc1-2 [Example 64] | 
> 200 | > 200 |  |  | O=C(O)c1n[nH]c2c1CC(c1ccccc1)c1cc(O)ccc1-2 (centres unmarked) [Example 113] | 

The next lines start with the compound.

Structure (SMILES) | IC50 (MAPKAPK2 (MK-2); [1]) [µM] | IC50 (MK-3; [2]) [µM] | IC50 (MAPKAPK2 (MK-2); read-out: MK-2 Avg. IC50) [µM] | IC50 (MK-3; read-out: MK-3 Avg. IC50) [µM] | other results
NC(=O)c1[nH]nc2c1CCc1c-2ccc(O)c1Br [Example 20] | 17.6 | > 200 |  |  | 
O=C(O)c1ccc(-c2ccc(CCNCCCn3nc4c(c3C(=O)O)CCc3cnccc3-4)cc2)cc1 [Example 18] |  |  | 0.0796 | 2.18 | 
O=C(O)c1c2c(nn1CCO)-c1cn[nH]c1CC2 [Example 37] |  |  |  |  | IC50 (MAPKAPK2 (MK-2); [3]): 139 µM; IC50 (MK-3; [4]): ≥ 200 µM
O=C(O)c1c2c(nn1CCCNCCc1ccc(Br)cc1)-c1ccncc1CC2 [Example 46] |  |  | 0.325 | 10.7 | 
CCOC(=O)c1c2c(nn1CCCNCCc1ccc(Br)cc1)-c1cn[nH]c1CC2 [Example 9] |  |  |  |  | IC50 (MAPKAPK2 (MK-2); [3]): 8.54 µM; IC50 (MK-3; [4]): 68.1 µM
NC(=O)c1nn(-c2ccccc2)c2c1CCc1[nH]ncc1-2 [Example 29] |  |  |  |  | IC50 (MAPKAPK2 (MK-2); [3]): 112 µM; IC50 (MK-3; [4]): ≥ 200 µM
NCCCn1nc2c(c1C(=O)O)CCc1cnc(-c3cnc4ccccc4c3)nc1-2 [Example 1] |  |  |  |  | IC50 (MAPKAPK2 (MK-2); [5]): 0.0761 µM; IC50 (MK-3; [6]): 1.93 µM
NCCCn1nc2c(c1C(=O)O)CCc1[nH]ncc1-2 [Example 2] |  |  |  |  | IC50 (MAPKAPK2 (MK-2); [3]): 2.17 µM; IC50 (MK-3; [4]): 35.3 µM
O=C(O)c1c2c(nn1CCCNCCc1cccs1)-c1cn[nH]c1CC2 [Example 7] |  |  |  |  | IC50 (MAPKAPK2 (MK-2); [3]): 3.66 µM; IC50 (MK-3; [4]): 55.2 µM
COc1cc2c(cc1-c1ccc([N+](=O)[O-])cc1)-c1nn(CCCNC(=O)OC(C)(C)C)c(C(=O)O)c1CC2 [Example 32] | 37.4 | 115 |  |  | 
NCCCn1nc2c(c1C(N)=O)CCc1cnc(-c3cnc4ccccc4c3)cc1-2 [Example 51] |  |  | 0.473 | 9.21 | 
Nc1cc2c(cc1O)CCc1c-2nn2c1C(=O)NCCC2 [Example 45] | 88.7 | > 200 |  |  | 
NCCCn1nc2c(c1C(=O)O)CCc1cnc(-c3ccc(C(F)(F)F)cc3)cc1-2 [Example 15] |  |  | 0.0567 | 0.209 | 
NC(=O)c1ccc(-n2nc(C(N)=O)c3c2-c2cn[nH]c2CC3)cc1 [Example 24] |  |  |  |  | IC50 (MAPKAPK2 (MK-2); [3]): 78.4 µM; IC50 (MK-3; [4]): ≥ 200 µM
CCOCn1ncc2c1CCc1c-2n[nH]c1C(N)=O [Example 46] |  |  |  |  | IC50 (MAPKAPK2 (MK-2); [3]): ≥ 200 µM; IC50 (MK-3; [4]): 145 µM
CCOC(=O)c1nn(-c2ccccc2)c2c1CCc1c-2cnn1Cc1ccccc1 [Example 55] |  |  |  |  | IC50 (MAPKAPK2 (MK-2); [3]): ≥ 200 µM; IC50 (MK-3; [4]): ≥ 200 µM
O=C(O)c1c2c(nn1CCCNC(c1ccccc1)(c1ccccc1)c1ccccc1)-c1nc(-c3cnc4ccccc4c3)ncc1CC2 [Example 6] |  |  |  |  | IC50 (MAPKAPK2 (MK-2); [5]): 2.16 µM; IC50 (MK-3; [6]): 154 µM
CC1Cc2c(nn(CCCN)c2C(=O)O)-c2ccc(O)cc21 (centres unmarked) [Example 14] | 10.7 | > 200 |  |  | 
O=C1NCCn2nc3c(c21)CCc1cnc(/C=C/c2ccc4c(c2)OCO4)cc1-3 [Example 4] |  |  |  |  | IC50 (MAPKAPK2 (MK-2); Table 5, other cyclic pyrazole MK-2 inhibiting compounds, read-out: MK-2 Avg. IC50): 0.223 µM; IC50 (MK-3; Table 5, other cyclic pyrazole MK-2 inhibiting compounds, read-out: MK-3 Avg. IC50): > 20 µM
O=C1NCCn2nc3c(c21)CCc1cnc(/C=C/c2ccc(O)cc2)cc1-3 [Example 29] |  |  | 0.164 | 27.5 | 
CC(C)(C)c1ccc(CCCNCCCn2nc3c(c2C(=O)O)CCc2cnccc2-3)cc1 [Example 39] |  |  | 0.234 | 11.6 | 
O=C(O)c1c2c(nn1CCCNCCCc1ccc(Br)cc1)-c1ccncc1CC2 [Example 38] |  |  | 0.22 | 10.3 | 
O=C(O)c1c2c(nn1CCCNCCc1ccc(-c3ccoc3)cc1)-c1ccncc1CC2 [Example 23] |  |  | 0.126 | 2.62 | 

Source: patent US20040127492A1 (Pharmacia Corporation, priority 2002, published 2004)
